For 1 compound, CC50 and EC50 results are on record in patent publication US9126986B2, “Hetero-bicyclic derivatives as HCV inhibitors” (Janssen R&D Ireland, priority 2011, dated 2015).

The subject of one data set is MT4-LTR-Luc cells. Put plainly: Counterscreen MT4-LTR-Luc. The format is cell-based. The note with it: MT4 T-cell line with long terminal repeat-Luc reporter. The text has this: Counterscreen cell lines included a Huh-7 hepatoma cell line containing a human cytomegalovirus major immediate-early promoter-Luc construct (Huh7-CMV-Luc) and an MT4 T-cell line containing a long terminal repeat-Luc reporter (MT4-LTR-Luc).
(The purpose of a counterscreen is to sort out artefacts and off-target activity.)

Data set [1] relates to HCV subgenomic replicon genotype 1a H77 in Huh-7 lunet cells. As to the kind of experiment: HCV replicon assay, transient transfection, genotype 1a H77. The format is cell-based, HCV genotype 1a H77. The note with it: transiently transfected Huh-7 lunet, genotype 1a H77, two days incubation, luciferase. The text has this: (§1) In a transient set-up, a Huh-7 lunet hepatoma cell line was transiently transfected with an autonomously replicating RNA encoding a bi-cistronic expression construct. This construct comprises a firefly luciferase reporter gene preceding the NS3-NS5B subgenomic region of HCV (genotype 1a H77 or 1b Con1). Translation of the HCV subgenomic region is mediated by an internal ribosome entry site of encephalomyocarditis virus. The construct is furthermore flanked by 5′ and 3′ untranslated regions of HCV (genotype 1a H77 or 1b Con 1, respectively), which allow for replication of the RNA.
(§2) Cells were plated in 384 well plates in the presence of test and control compounds, which were added in various concentrations. Following an incubation of two days, replication of the HCV subgenomic replicon RNA was measured by assaying luciferase activity (using standard luciferase assay substrates and reagents and a Perkin Elmer ViewLux™ ultraHTS microplate imager). HCV subgenomic replicon containing cells in the control cultures have high luciferase expression in the absence of any inhibitor. The inhibitory activity of the compound was monitored, enabling a dose-response curve for each test compound. EC50 values were then calculated, which represent the amount of compound required to decrease the level of detected luciferase activity by 50%, or more specifically, to reduce the ability of the genetically linked HCV subgenomic RNA to replicate.
A general note: Replicon systems follow genome replication, usually without infectious particles.

For data set [2], the system named is HCV replicon type 1b in Huh-Luc cells. Put plainly: HCV replicon assay, stable transfection (Huh-7 luc/neo, luciferase readout). The format is cell-based, HCV type 1b. The settings on record: stably transfected Huh-Luc cells, genotype 1b, three days incubation, average where tested more than once, read-out: HCV-REP-HUH7LUC_EC50. The source says:
The compounds of formula (I) were examined for inhibitory activity in the HCV replicon. This cellular assay is based on a bicistronic expression construct, as described by Lohmann et al. (Science (1999) 285: 110-113; Journal of Virology (2003) 77: 3007-3019) with modifications described by Krieger et al. (Journal of Virology (2001) 75: 4614-4624), and Lohmann et al. (Journal of Virology (2003) 77: 3007-3019) for genotype 1b and by Yi et al. (Journal of Virology (2004) 78: 7904-7915) for genotype 1a, in a multi-target screening strategy.
The method was as follows. The assay utilized the stably transfected cell line Huh-7 luc/neo (hereafter referred to as Huh-Luc). This cell line harbors an RNA encoding a bicistronic expression construct comprising the wild type NS3-NS5B regions of HCV type 1b translated from an Internal Ribosome Entry Site (IRES) from encephalomyocarditis virus (EMCV), preceded by a reporter portion (FfL-luciferase), and a selectable marker portion (neoR, neomycine phosphotransferase). The construct is flanked by 5′ and 3′ NTRs (non-translated regions) from HCV type 1b. Continued culture of the replicon cells in the presence of G418 (neoR) is dependent on the replication of the HCV RNA. The stably transfected replicon cells that replicate HCV RNA autonomously and to high levels, encoding inter alia luciferase, were used for screening the antiviral compounds.
The replicon cells were plated in 384 well plates in the presence of the test and control compounds which were added in various concentrations. Following an incubation of three days, HCV replication was measured by assaying luciferase activity (using standard luciferase assay substrates and reagents and a Perkin Elmer ViewLux™ ultraHTS microplate imager). Replicon cells in the control cultures have high luciferase expression in the absence of any inhibitor. The inhibitory activity of the compound was monitored on the Huh-Luc cells, enabling a dose-response curve for each test compound. EC50 values were then calculated, which represent the amount of compound required to decrease the level of detected luciferase activity by 50%, or more specifically, to reduce the ability of the genetically linked HCV replicon RNA to replicate.
Where a compound of formula (I) was tested more than once in the replicon assay, the average of all test results is given in this Table 1.

For data set [3], the system named is HCV subgenomic replicon genotype 1b Con1 in Huh-7 lunet cells. As to the kind of experiment: HCV replicon assay, transient transfection, genotype 1b Con1. The settings on record: transiently transfected Huh-7 lunet, genotype 1b Con1, two days incubation, luciferase. The format is cell-based, HCV genotype 1b Con1.
Text: as §1, §2

Turning to `COC(=O)N[C@H](C(=O)N1CCCC1c1[nH]c2cc(-c3ccc(-c4ccc(-c5cnc([C@@H]6CCCN6C(=O)[C@@H](NC(=O)OC)C(C)C)[nH]5)cc4)cc3)ccc2c(=O)c1F)C(C)C` (single isomer, unassigned) [Compound 18b], the CC50 (in general, the concentration giving 50% cytotoxicity) in the data set on MT4-LTR-Luc cells is above 984 nM. Further, the EC50 in data set [1] amounted to 65.6 nM; in data set [2], 4.4 nM; in data set [3] it was 6.7 nM.
